# Test results reported in patent US20050038113A1, “Valproic acid and derivatives for the combinatorial therapeutic treatment of human cancers and for the treatment of tumor metastasis and minimal residual disease” (G2M Cancer Drugs AG, priority 2001, published 2005).
# How the values were obtained:
# [1] = test system: control cells (lin-, PINCO empty vector or uninfected); test: myeloid differentiation (Mac-1, FACS) of transduced hematopoietic progenitors; type: cell-based, Murine
# Experimental: Murine hematopoietic progenitors (lin-) were transduced with a retroviral vector encoding PML-RAR, and GFP as a marker. […] Myeloid differentiation was scored by analyzing the presence of the differentiation marker Mac-1.
# Murine hematopoietic progenitors were purified from the bone marrow of 129 mice on the basis of the absence of lineage differentiation markers (lin-). Lin- cells were grown for 48 hours in the presence of IL-3 (20 ng/ml), IL-6 (20 ng/ml), SCF (100 ng/ml), and then attached to non-tissue culture treated plates coated with Retronectin (Takara-Shuzo). Cells were then transduced by incubation with the supernatant from Phoenix ecotropic packaging cells (supplemented with fresh serum, and IL-3, IL-6, and SCF as above), transiently transfected with the control retroviral vector PINCO, or PINCO-PML-RAR. After 60 hours, GFP+cells were sorted by FACS, and seeded in methylcellulose plates supplemented as above, plus G-CSF (60 ng/ml) and GM-CSF (20 ng/ml). […] After 8-10 days, cells were analyzed for the presence of the myeloid differentiation marker Mac-1 by FACS. […] Uninfected cells, and cells infected with the control PINCO vector behaved identically (data not shown).
# For FIG. 11 Lin- cells were transduced with the indicated vectors (control: PINCO, empty vector encoding GFP alone), and GFP+cells were sorted by FACS. […] Differentiation was assessed after 8-10 days by analysis of the myeloid differentiation marker Mac-1.
# histone deacetylases = settings: cited from earlier work
# [2] = test system: A431 squamous cell carcinoma cells; test: MTT cell viability assay; type: cell-based, Human; settings: for cell viability: single reagent, valproic acid 3 mM
# Experimental: (§1) Human MDA-MB468, MDA-MB453 and SKBR3 breast carcinoma cells and A431 squamous cell carcinoma cells were maintained in Dulbecco's modified Eagle's medium (DMEM, BioWhittaker, Verviers, Belgium) supplemented with 10% heat inactivated fetal bovine serum (FBS), 2 mM L-glutamine, 100 units/ml penicillin, and 100 μg/ml streptomycin.
# (§2) Tumor cells were seeded in 96 well plates at a density of 1×10^4 cells/well in normal growth medium. […] Control cells were grown in the absence of valproic acid or antibodies. 10 μl of 10 mg/ml 3-(4,5-dimethylthiazole-2-yl)-2,5 diphenyltetrazolium bromide (MTT) (Sigma, Deisenhofen, Germany) in PBS were added to each well and the cells were incubated for another 3 h. Cells were lysed by the addition of 90 μl of lysis buffer (20% SDS in 50% dimethyl formamide, pH 4.7). After solubilization of the formazan product, the absorption at 590 nm was determined in a microplate reader (Dynatech, Denkendorf, Germany) and the relative amount of viable cells in comparison to cells cultured without the addition of valproic acid or antibodies was calculated.
# (§3) Human SKBR3 breast carcinoma cells, A431 squamous cell carcinoma cells and SKOV3 ovarian carcinoma cells were maintained in Dulbecco's modified Eagle's medium (DMEM, BioWhittaker, Verviers, Belgium) supplemented with 10% heat-inactivated fetal bovine serum (FBS), 2 mM L-glutamine, 100 units/ml penicillin, and 100 μg/ml streptomycin.
# (§4) Tumor cells were seeded in 96 well plates at a density of 1×10^4 cells/well in normal growth medium. […] Renca-lacZ/ErbB2, Renca-lacZ/EGFR and Renca-lacZ/EGFRvIII cells were treated for 40 h with valproic acid at a final concentration of 1 mM, or 10 ng/ml of the recombinant anti-ErbB2 single chain antibody-toxin scFv(FRP5)-ETA, or 1 ng/ml of the recombinant anti-EGF receptor single chain antibody-toxin scFv(14E1)-ETA, or a combination of valproic acid with either scFv(FRP5)-ETA or scFv(14E1)-ETA at the same concentrations. Control cells were grown in the absence of valproic acid or antibody-toxins. Ten μl of 10 mg/ml 3-(4,5-dimethylthiazole-2-yl)-2,5 diphenyltetrazolium bromide (MTT) (Sigma, Deisenhofen, Germany) in PBS were added to each well and the cells were incubated for another 3 h. Cells were lysed by the addition of 90 μl of lysis buffer (20% SDS in 50% dimethyl formamide, pH 4.7). After solubilization of the formazan product, the absorption at 590 nm was determined in a microplate reader (Dynatech, Denkendorf, Germany) and the relative amount of viable cells in comparison to cells cultured without the addition of valproic acid or antibody-toxins was calculated.
# [3] = test system: SKBR3 breast carcinoma cells; test: MTT cell viability assay; type: cell-based, Human; settings: for cell viability: single reagent, valproic acid 3 mM
# Experimental: as §1, §2, §3, §4
# Renca-lacZ cells = test: in vivo mouse model of renal carcinoma lung metastasis (X-Gal staining); design: species or system Balb/c mice; settings: 2×400 mg/kg/day i.p. Na-VPA; Renca-lacZ cells into tail vein; vs glucose solution
# Text: Mouse renal carcinoma cells (Renca) were established from a spontaneously arising kidney tumor in Balb/c mice. These cells efficiently form tumors in the lung upon transplantation into Balb/c mice through the tail vein and the tumorigenic properties of Renca cells have been well established (Murphy, et al., 1973, J. Natl. Cancer Inst., 50: 1013-1025; Hrushesky et al., 1973, J. Surg. Res., 15: 327-332; Williams et al., 1981, Res. Comm. Chem. Pathol. Pharmacol., 34: 345-349). The circulating tumor cells in this model setting represent a mimicry of situations frequently found in tumor patients when residual tumor cells are circulating in a patient's body and finally invade and home in various organs to grow as metastatic tumors. The inhibition of such minimal residual tumor diseases is one of the major aims of modern tumor therapy and can be experimentally examined in the in vivo model used here. Renca cells and the transfected cell clone Renca-lacZ (encoding for β-galactosidase) were grown in RPMI-1640 supplemented with 10% fetal calf serum (FCS). For metastasis formation in recipient mice […] Renca-lacZ cells in 100 μl PBS were injected into the lateral tail vein of female Balb/c mice at 4 to 6 weeks of age. […] Metastatic surface nodules were analyzed under a dissecting microscope and representative pictures were taken and are presented in FIG. 9.
# [4] = 3 mM valproic acid + 10 ng/ml scFv(14E1)-ETA, 40 h
# [5] = 3 mM valproic acid + 10 ng/ml scFv(FRP5)-ETA, 40 h
# [6] = 40 h, scFv(FRP5)-ETA 10 ng/ml, scFv(14E1)-ETA 10 ng/ml
compound,measurement,setting,value
"CCCC(CCC)C(=O)O [VPA, 2-propylpentanoic acid]",number of colonies,"[1]; VPA at higher concentrations (>3 mM), most likely induction of cell death, data not shown",reduction in the number of colonies
same,number of Mac-1+ cells and number of colonies,[1]; VPA up to concentrations of 1 mM,did not cause significant changes
same,differentiation of control cells,[1]; VPA with cytokines,did not affect differentiation
same,histone deacetylase inhibition,histone deacetylases,acts as an inhibitor of histone deacetylases
same,"cell viability, combination treatment","[2]; 3 mM VPA + 2 μg/ml c225, 70 h",synergistic reduction of cell viability
same,"cell viability, combination treatment",[2]; [4],pronounced additive therapeutic effect
same,"cell viability, combination treatment",[2]; [5],pronounced additive therapeutic effect
same,cell viability,[2]; [6],inhibit the viability
same,cell viability,"[2]; 70 h, c225 2 μg/ml",inhibit the viability
same,"cell viability, combination treatment",[3]; [4],pronounced additive therapeutic effect
same,"cell viability, combination treatment",[3]; [5],pronounced additive therapeutic effect
same,"cell viability, combination treatment","[3]; 3 mM valproic acid + 2 μg/ml Herceptin, 70 h",pronounced additive therapeutic effect
same,cell viability,[3]; [6],inhibit the viability
same,cell viability,"[3]; 70 h, Herceptin 2 μg/ml",inhibit the viability
same,formation of lung metastasis (number and size of metastatic nodules),Renca-lacZ cells,effectively inhibited the formation of lung metastasis
